According to patent US7067700B2, “Process for preparing sertraline hydrochloride polymorphic form II” (Fermion Oy, priority 2001, dated 2006):
Structures can show the parent of a compound that is named as a salt. Each block holds one molecule with its values, some of them ahead of it.

Experiments:
[1] = stability of sertraline hydrochloride polymorphic forms; assay type: physicochemical; settings: statement in words
[2] = dissolution / solubility of sertraline hydrochloride polymorphic forms; assay type: physicochemical; settings: comparison of polymorphic forms; statement in words
[3] = claimed in the cited patent; cited from earlier work
[4] = claimed in the cited patent; cited from earlier work; remark: listed apart in the source

stability of the polymorph ([1]; form II prepared by the method described, no test described): stable
Structure (SMILES): CNC1CCC(c2ccc(Cl)c(Cl)c2)c2ccccc21 (stereo not drawn) [(1S-cis)-4-(3,4-dichlorophenyl)-1,2,3,4-tetrahydro-N-methyl-1-naphtalenamine hydrochloride]

Structure (SMILES): CN[C@H]1CC[C@@H](c2ccc(Cl)c(Cl)c2)c2ccccc21.Cl [Form I]
stability of the polymorph (comparison of forms) ([1]; compared with form II): more stable
dissolution properties [2]: poor dissolution properties

Structure (SMILES): CN[C@H]1CC[C@@H](c2ccc(Cl)c(Cl)c2)c2ccccc21.Cl [Polymorphic form T1]
solubility in aqueous fluids as claimed in U.S. Pat. No. 5,734,083 [3]: enhanced solubility
dissolution properties [2]: dissolves better than forms I and II
stability as claimed in U.S. Pat. No. 5,734,083 [4]: acceptable stable
